Assay results taken from EPA's ToxValDB 9.5 (doi:10.2903/j.efsa.2011.1969).
In brackets after ≈: the same amount, converted by molar mass.

Columns and labels:
Daphnia magna = conditions: chronic/long-term; duration: 21 days; reproduction
Apis mellifera = conditions: acute; duration: 48 hours; oral; unspecified; mortality
Folsomia candida = conditions: chronic/long-term; duration: 28 days
Colinus virginianus = conditions: acute; oral; mortality
Coturnix japonica = conditions: reproduction developmental
Bibionidae = conditions: chronic/long-term; duration: 27 days
Anas platyrhynchos = conditions: short-term; oral; feed; mortality
Tagia sp. = conditions: acute; duration: 14 days; mortality
Aphidius rhopalosiphi = test: LR50; higher = less toxic; conditions: not reported; mortality
Typhlodromus pyri = test: LR50; higher = less toxic; conditions: not reported; mortality

CCNc1nc(Cl)nc(NC(C)(C)C)n1 [Terbutylazine]
LC50 (Oncorhynchus mykiss; acute, duration: 96 hours, mortality): 2.2 µg/mL (≈ 9.58 µM) | NOEC (Oncorhynchus mykiss; chronic/long-term, duration: 90 days, time to swim up): 0.09 mg/L | NOEC (Daphnia magna): 0.019 mg/L | LD50 (Apis mellifera): > 22.6 µg/piece | NOEC (Folsomia candida): 42.2 mg/kg | LD50 (Colinus virginianus): 1240 mg/kg-day | NOEL (Coturnix japonica): 13.8 mg/kg-day | NOEC (Bibionidae): 0.5 mg/L | LC50 (Anas platyrhynchos): > 395 mg/kg-day | LC50 (Tagia sp.): > 283 mg/kg | LD50 (Rattus norvegicus; acute, oral, mortality): < 1590 mg/kg | NOAEL (Rattus norvegicus; chronic): 3.3 mg/kg-day | LR50 (Aphidius rhopalosiphi): > 750 g/ha | LR50 (Typhlodromus pyri): > 750 g/ha
